Results from US20230066011A1, “PYRROLOPYRIMIDINE DERIVATIVE, AND PHARMACEUTICAL COMPOSITION FOR PREVENTING OR TREATING PROTEIN KINASE-RELATED DISEASE COMPRISING SAME AS ACTIVE INGREDIENT” (VORONOI CO., LTD., priority 2019, published 2023).

Experiments:
human DYRK1A and tau = assay: Inhibition of tau phosphorylation, ClariCELL Kinase Cell-Based Assay, HEK 293 cells expressing human DYRK1A and tau; conditions: for inhibition at 1 µM: HEK293, read-out: % inhibition at 1 uM, tau phosphorylation, compound 1 uM; for inhibition at 0.25 µM / inhibition at 0.5 µM: HEK293, tau phosphorylation; for inhibition at 0.25 µM: compound 0.25 uM; for inhibition at 0.5 µM: compound 0.5 uM
Outline: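 Cell-based service assay: HEK 293 cells transiently expressing human DYRK1A and tau were treated with compound and lysed. Released tau was plate-captured and its phosphorylation quantified by ELISA with a phospho-tau-specific antibody.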

human GST-CLK1 = target: T1, human GST-CLK1 (Homo sapiens, UniProt P49759); assay: GST-CLK1 enzyme inhibition, ADP-Glo kinase assay; type: biochemical; conditions: ATP 10 μM, GST-CLK1 129-end
T1 construct: purified human GST-CLK1 (129-end, SignalChem) enzyme; purchased SignalChem
T1 sequence (P49759 129-484 limits assumed): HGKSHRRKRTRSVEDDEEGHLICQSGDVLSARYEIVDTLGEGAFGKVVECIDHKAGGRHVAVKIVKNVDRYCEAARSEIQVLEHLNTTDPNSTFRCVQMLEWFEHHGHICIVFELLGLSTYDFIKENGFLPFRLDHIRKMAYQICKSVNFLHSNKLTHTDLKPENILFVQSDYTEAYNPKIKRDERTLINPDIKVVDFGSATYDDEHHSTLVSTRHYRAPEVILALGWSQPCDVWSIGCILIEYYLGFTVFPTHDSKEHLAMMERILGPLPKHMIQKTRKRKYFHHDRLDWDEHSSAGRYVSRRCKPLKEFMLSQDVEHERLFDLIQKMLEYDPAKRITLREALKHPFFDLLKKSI
Outline: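 Human GST-CLK1 (129-end, 3 ng) reacted with substrate and 10 μM ATP for 1 h at 25° C in 40 mM Tris-HCl pH 7.4, 20 mM MgCl2, 0.5 mg/mL BSA, 50 μM DTT. ADP-Glo luminescence was normalised to solvent control; IC50 (nM) from 3 data sets.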

MDA-MB-468 cell line = assay: Inhibition of proliferation of MDA-MB-468 cancer cells (Cell Titer-Glo); type: cell-based; conditions: Homo sapiens, MDA-MB-468, 72 hours
Outline: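 GI50 values derive from Cell Titer-Glo luminescence, measured after a 10-minute room-temperature incubation with the reagent. Before that, cells plated at 2,000 per well in DMEM or RPMI medium were treated for 72 h with compound at 11 final concentrations spanning 10 μM down to 0.000169 μM in threefold steps.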

LRRK2 (G2019S) = LRRK2 (G2019S) (Homo sapiens, UniProt Q5S007, G2019S); assay: LRRK2 G2019S enzyme inhibition, ADP-Glo kinase assay; type: biochemical; parameters: purchased SignalChem L10-12GG; conditions: ATP 25 μM
Chain of LRRK2 (G2019S) (Q5S007 970-2527 G2019S limits assumed): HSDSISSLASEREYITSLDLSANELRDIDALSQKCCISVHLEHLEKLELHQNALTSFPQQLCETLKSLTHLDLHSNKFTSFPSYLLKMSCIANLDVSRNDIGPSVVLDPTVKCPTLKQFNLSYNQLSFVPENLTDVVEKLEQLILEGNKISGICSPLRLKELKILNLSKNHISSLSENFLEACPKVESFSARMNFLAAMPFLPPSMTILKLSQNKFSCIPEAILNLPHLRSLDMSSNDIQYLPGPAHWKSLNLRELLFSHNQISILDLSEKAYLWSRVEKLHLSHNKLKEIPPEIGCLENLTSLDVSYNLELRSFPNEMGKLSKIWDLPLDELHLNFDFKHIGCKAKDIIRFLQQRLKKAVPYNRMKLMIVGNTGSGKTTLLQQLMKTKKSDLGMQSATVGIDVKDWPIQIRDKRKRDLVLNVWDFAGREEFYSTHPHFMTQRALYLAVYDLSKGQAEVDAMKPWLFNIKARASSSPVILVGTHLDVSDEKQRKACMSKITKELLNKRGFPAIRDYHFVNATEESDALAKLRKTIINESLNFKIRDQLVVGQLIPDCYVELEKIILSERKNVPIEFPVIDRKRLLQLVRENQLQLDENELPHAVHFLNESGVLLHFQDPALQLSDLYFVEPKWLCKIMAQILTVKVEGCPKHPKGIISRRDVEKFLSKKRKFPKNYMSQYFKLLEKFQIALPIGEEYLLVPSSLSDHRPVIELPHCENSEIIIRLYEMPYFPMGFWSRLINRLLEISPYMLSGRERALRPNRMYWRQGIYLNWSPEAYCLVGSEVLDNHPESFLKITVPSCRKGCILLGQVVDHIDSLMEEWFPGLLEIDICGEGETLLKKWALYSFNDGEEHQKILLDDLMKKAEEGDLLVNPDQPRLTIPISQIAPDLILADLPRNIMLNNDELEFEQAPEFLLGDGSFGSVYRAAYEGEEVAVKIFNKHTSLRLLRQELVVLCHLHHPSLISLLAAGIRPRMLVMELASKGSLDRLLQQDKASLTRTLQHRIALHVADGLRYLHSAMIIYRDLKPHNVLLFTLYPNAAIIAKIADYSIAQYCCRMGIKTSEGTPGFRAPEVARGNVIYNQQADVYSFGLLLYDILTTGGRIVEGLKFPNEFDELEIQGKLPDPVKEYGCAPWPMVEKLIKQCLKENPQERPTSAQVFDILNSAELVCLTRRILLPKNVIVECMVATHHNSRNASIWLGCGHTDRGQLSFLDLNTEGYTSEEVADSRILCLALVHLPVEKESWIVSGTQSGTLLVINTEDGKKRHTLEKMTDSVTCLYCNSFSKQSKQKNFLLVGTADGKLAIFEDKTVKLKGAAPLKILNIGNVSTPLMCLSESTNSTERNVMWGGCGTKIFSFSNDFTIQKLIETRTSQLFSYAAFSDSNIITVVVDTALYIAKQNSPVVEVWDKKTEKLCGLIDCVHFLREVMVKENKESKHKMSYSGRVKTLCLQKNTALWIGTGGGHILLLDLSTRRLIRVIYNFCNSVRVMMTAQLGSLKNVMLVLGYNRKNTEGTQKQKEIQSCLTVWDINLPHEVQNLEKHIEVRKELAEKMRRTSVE
Outline: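 Purified human LRRK2 G2019S (16 ng) with 25 μM ATP and 0.2 μg substrate, 2 h at 25° C. in Tris-HCl pH 7.4, MgCl2, BSA, DTT buffer; compounds at 12 final concentrations, 50 μM down to 0.000001024 μM. ADP-Glo luminescence versus solvent control gave IC50.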

Row | Compound | IC50 (human GST-CLK1) [nM] | GI50 (MDA-MB-468 cell line) [nM] | IC50 (LRRK2 (G2019S)) [nM] | inhibition at 1 µM (human DYRK1A and tau) [%] | inhibition at 0.25 µM (human DYRK1A and tau) [%] | inhibition at 0.5 µM (human DYRK1A and tau) [%]
1 | O=C(c1ccc(Nc2nc(C3CC3)c3c(C(F)(F)F)c[nH]c3n2)c2c1OCCO2)N1CCC(N2CCOCC2)CC1 [Example 228, (8-((4-cyclopropyl-5-(trifluoromethyl)-7H-pyrrolo[2,3-d]pyrimidin-2-yl)amino)-2,3-dihydrobenzo[b][1,4]dioxin-5-yl)(4-morpholinopiperidin-1-yl)methanone] | < 100 | 301 to 1000 | < 100 | 49 | 9.3 | 24.7
2 | COCCNc1nc(Nc2ccc(C(=O)N3CCC(N4CCOCC4)CC3)c3c2OCC3)nc2[nH]cc(C#N)c12 [Example 359, 4-((2-methoxy-ethyl)ami-no)-2-((4-(4-morpholino-piperidine-1-carbonyl)-2,3-dihydro-benzofuran-7-yl)amino)-7H-pyrrolo[2,3-d]pyrimidine-5-carbonitrile] | < 100 | 301 to 1000 | – | 55.9 | 23.4 | 42.8
3 | CNc1nc(Nc2ccc(C(=O)N3CCN(C4COC4)CC3)c3c2OCCO3)nc2[nH]cc(C(F)(F)F)c12 [Example 397, (8-((4-(methylamino)-5-(trifluoromethyl)-7H-pyrrolo[2,3-d]pyrimidin-2-yl)amino)-2,3-dihydrobenzo[b] [1,4]dioxin-5-yl) (4-(oxetan-3-yl)piperazin-1-yl)methanone] | < 100 | 301 to 1000 | < 100 | 52.8 | 12.9 | 41.1
4 | CCNc1nc(Nc2ccc(C(=O)N3CCN(C4COC4)CC3)c3c2OCCO3)nc2[nH]cc(C(F)(F)F)c12 [Example 400, (8-((4-(ethylamino)-5-(trifluoromethyl)-7H-pyrrolo[2,3-d]pyrimidin-2-yl)amino)-2,3-dihydrobenzo[b] [1,4]dioxin-5-yl) (4-(oxetan-3-yl)piperazin-1-yl)methanone] | < 100 | 301 to 1000 | < 100 | 69.4 | 22.3 | 46.5
5 | O=C(c1ccc(Nc2nc(NC3CC3)c3c(C(F)(F)F)c[nH]c3n2)c2c1OCCO2)N1CCN(C2COC2)CC1 [Example 405, (8-((4-(cyclo-propylamino)-5-(trifluoromethyl)-7H-pyrrolo[2,3-d]pyrimidin-2-yl)amino)-2,3-dihydrobenzo[b] [1,4]dioxin-5-yl) (4-(oxetan-3-yl)piperazin-1-yl)methanone] | < 100 | 301 to 1000 | < 100 | 70.7 | 17.5 | 44
6 | O=C(c1ccc(Nc2nc(NC3CCC3)c3c(C(F)(F)F)c[nH]c3n2)c2c1OCCO2)N1CCN(C2COC2)CC1 [Example 407, (8-((4-(cyclo-butylamino)-5-(trifluoromethyl)-7H-pyrrolo[2,3-d]pyrimidin-2-yl)amino)-2,3-dihydrobenzo[b] [1,4]dioxin-5-yl) (4-(oxetan-3-yl)piperazin-1-yl)methanone] | < 100 | 301 to 1000 | – | 58.6 | 20.7 | 39.4
7 | CCNc1nc(Nc2ccc(S(=O)(=O)N3CCC(N4CCOCC4)CC3)c3c2OCCO3)nc2[nH]cc(C(F)(F)F)c12 [Example 430, N^4-ethyl-N^2-(8-((4-morpholino-piperidin-1-yl)sulfonyl)-2,3-dihydro-benzo[b][1,4]dioxin-5-yl)-5-(trifluoromethyl)-7H-pyrrolo[2,3-d]pyrimidine-2,4-diamine] | 101 to 300 | 301 to 1000 | < 100 | 65.3 | 10.8 | 41.6
8 | O=C(c1ccc(Nc2nc(NC3CC3)c3c(C(F)(F)F)c[nH]c3n2)c2c1CCO2)N1CCC(N2CCOCC2)CC1 [Example 434, (7-((4-(cyclopropyl-amino)5-(trifluoromethyl)-7H-pyrrolo[2,3-d]pyrimidin-2-yl)amino)-2,3-dihydrobenzo-furan-4-yl)(4-morpho-linopiperidin-1-yl)methanone] | < 100 | 301 to 1000 | < 100 | 87.3 | 47.4 | 65.2
9 | CCNc1nc(Nc2ccc(C(=O)N3CCC(N4CCOCC4)CC3)c3c2OCC3)nc2[nH]cc(C(F)(F)F)c12 [Example 438, (7-((4-(ethylamino)-5-(trifluoromethyl)-7H-pyrrolo[2,3-d]pyrimidin-2-yl)amino)-2,3-dihydrobenzo-furan-4-yl)(4-morpho-linopiperidin-1-yl)methanone] | < 100 | 301 to 1000 | < 100 | 86.8 | 46.3 | 69.7
10 | COCCNc1nc(Nc2ccc(C(=O)N3CCC(N4CCOCC4)CC3)c3c2OCC3)nc2[nH]cc(C(F)(F)F)c12 [Example 443, (7-((4-((2-methoxyethyl)amino)-5-(trifluoromethyl)-7H-pyrrolo[2,3-d]pyrimidin-2-yl)amino)-2,3-dihydrobenzo-furan-4-yl)(4-morpho-linopiperidin-1-yl)methanone] | < 100 | 301 to 1000 | < 100 | – | – | –
11 | COCCNc1nc(Nc2ccc(P3(=O)CCN(C4CCOCC4)CC3)cc2OC)nc2[nH]cc(C(F)(F)F)c12 [Example 444, 4-(3-methoxy-4-((4-((2-methoxyethyl)amino)-5-(trifluoromethyl)-7H-pyrrolo[2,3-d]pyrimidin-2-yl)amino)phenyl)-1-(tetrahydro-2H-pyran-4-yl)-1,4-azaphosphinane 4-oxide] | < 100 | 301 to 1000 | – | 65.6 | 21.7 | 45.7
12 | COc1cc(S(=O)(=O)N2CCC(N3C[C@H]4C[C@@H]3CO4)CC2)ccc1Nc1nc(C2CC2)c2c(C(F)(F)F)c[nH]c2n1 [Example 473, N-(4-((4-((1R,4R)-2-oxa-5-azabicyclo[2.2.1]heptan-5-yl)piperidin-1-yl)sulfonyl)-2-methoxyphenyl)-4-cyclopropyl-5-(trifluoromethyl)-7H-pyrrolo[2,3-d]pyrimidin-2-amine] | – | 301 to 1000 | – | 73.3 | 16.3 | 35.8

Now from value to compound, other results behind:

Row | IC50 (human GST-CLK1) [nM] | GI50 (MDA-MB-468 cell line) [nM] | IC50 (LRRK2 (G2019S)) [nM] | Compound | inhibition at 1 µM (human DYRK1A and tau) [%] | inhibition at 0.25 µM (human DYRK1A and tau) [%] | inhibition at 0.5 µM (human DYRK1A and tau) [%]
13 | < 100 | 301 to 1000 | < 100 | CNc1nc(Nc2ccc(C(=O)N3CCC(N4CCOCC4)CC3)c3c2OCC3)nc2[nH]cc(C(F)(F)F)c12 [Example 217, (7-((4-(methylamino)-5-(trifluoromethyl)-7H-pyrrolo[2,3-d]pyrimidin-2-yl)amino)-2,3-dihydrobenzofuran-4-yl)(4-morpholinopiperidin-1-yl)methanone] | 77.9 | 32 | 63.7
14 | < 100 | 301 to 1000 | < 100 | CNc1nc(Nc2ccc(S(=O)(=O)N3CCC(N4CCOCC4)CC3)c3c2OCCO3)nc2[nH]cc(C(F)(F)F)c12 [Example 219, N^4-methyl-N^2-(8-((4-morpholinopiperidin-1-yl)sulfonyl)-2,3-dihydrobenzo[b][1,4]dioxin-5-yl)-5-(trifluoromethyl)-7H-pyrrolo[2,3-d]pyrimidine-2,4-diamine] | 84.2 | 42.1 | 58.8
15 | 101 to 300 | < 50 | – | COc1cc(S(=O)(=O)N2CCC(N3CCOCC3)CC2)ccc1Nc1nc(C2CC2)c2c(C#N)c[nH]c2n1 [Example 224, 4-cyclopropyl-2-((2-methoxy-4-((4-morpholinopiperidin-1-yl)sulfonyl)phenyl)amino)-7H-pyrrolo[2,3-d]pyrimidine-5-carbonitrile] | 39.9 | 3.6 | 15.6
16 | < 100 | 101 to 300 | < 100 | O=C(c1ccc(Nc2nc(NC3CCCC3)c3c(C(F)(F)F)c[nH]c3n2)c2c1OCCO2)N1CCN(C2COC2)CC1 [Example 414, (8-((4-(cyclopentyl-amino)-5-(trifluoromethyl)-7H-pyrrolo[2,3-d]pyrimidin-2-yl)amino)-2,3-dihydrobenzo[b] [1,4]dioxin-5-yl) (4-(oxetan-3-yl)piperazin-1-yl)methanone] | – | – | –
17 | 301 to 1000 | 101 to 300 | 301 to 1000 | O=C(c1ccc(Nc2nc(NC3CCCCC3)c3c(C(F)(F)F)c[nH]c3n2)c2c1OCCO2)N1CCN(C2COC2)CC1 [Example 415, (8-((4-(cyclo-hexylamino)-5-(trifluoromethyl)-7H-pyrrolo[2,3-d]pyrimidin-2-yl)amino)-2,3-dihydrobenzo[b] [1,4]dioxin-5-yl) (4-(oxetan-3-yl)piperazin-1-yl)methanone] | – | – | –
